Laboratory results published in patent US20240101561A1, “NOVEL TETRAZOLES” (Boehringer Ingelheim International GmbH, priority 2019, published 2024).
pIC50: −log10 of the molar value.

How the values were obtained:
human TRPA1 ion channel = human TRPA1 ion channel (Homo sapiens (Human), UniProt O75762); assay: Assay A: TRPA1 cell assay (FLIPR, AITC-induced intracellular calcium); format: cell-based; details: HEK293 cells over-expressing human TRPA1; AITC 10 μM agonist; FLIPRtetra; read-out: hTRPA1 IC50
Description: A human HEK293 cell line over-expressing the human TRPA1 ion channel (Perkin Elmer, Product No. AX-004-PCL) was used as a test system for compound efficacy and potency.
Compound activity was determined by measuring the effect of compounds on intracellular calcium concentration induced by AITC (Allylisothiocyanat) agonism in a FLIPRtetra system (Molecular Devices).
The cells were obtained as frozen cells in cryo-vials and stored until use at −150° C. Cells were grown in culture medium (MEM/EBSS medium with 10% FCS and 0.4 mg/ML Geneticin). […] For sub-culturing cells were detached from flasks by Versene. At the day before the assay, cells were detached, washed twice with medium (MEM/EBSS medium with 10% FCS) and 20000 cells in 20 μl/well were seeded to Poly D-Lysin biocoated 384-well plates (black, clear bottom, Cat.356697) from Corning. Plates were incubated for 24 hours at 37° C./5% CO2 before use in the assay.
The test compounds were dissolved in 100% DMSO at a concentration of 10 mM and in a first step diluted in DMSO to a concentration of 5 mM, followed by serial dilution steps in 100% DMSO. Dilution factor and number of dilution steps may vary according to needs. Typically 8 different concentrations by 1:5 dilutions were prepared, further intermediate dilutions (1:20) of the substances were carried out with HBSS/HEPES buffer (1×HEPES,Cat.14065 from Gibco, 20 mM HEPES, Cat. 83264 from SIGMA, 0.1% BSA Cat.11926 from Invitrogen, pH 7,4
At the assay day cells were washed 3× with assay puffer, 20 μL buffer remained in the wells after washing. 10 μL Ca6 kit (Cat.R8191 MolecularDevices) loading buffer in HBSS/HEPES was added to the cells and the plates were incubated with lid for 120 minutes at 37°/5% CO2. 10 μL of compound or controls in HBSS/HEPES buffer/5% DMSO from the intermediate dilution plate were carefully added to the wells. […] Finally 10 μL of the agonist AITC 50 μM dissolved in HBSS/HEPES buffer/0,05% DMSO (final concentration 10 μM) was added to the wells followed by an additional read on the FLIPRtetra device for 10 minutes. The area under the signal curve (AUC) after AITC addition was used for IC50/% inhibition calculations
Data Evaluation and Calculation:
Each assay microtiter plate contained wells with vehicle (1% DMSO) controls instead of compound as controls for AITC induced luminescence (100% CTL; high controls) and wells with vehicle controls without AITC as controls for non-specific changes in luminescence (0% CTL; low controls).
The analysis of the data was performed by the calculation of the area under signal curve of the individual wells. Based on this values the % value for the measurement of each substance concentration was calculated (AUC(sample)−AUC(low))*100/(AUC(high)−AUC(low)) using MegaLab software (in house development). The IC50 values were calculated from the % control values using MegaLab software. Calculation: [y=(a−d)/(1+(x/c){circle around ( )}b)+d], a=low value, d=high value; x=conc M; c=IC50 M; b=hill; y=ctrl

[1] = Assay B: Microsomal clearance; format: in vitro ADME, human; details: pooled liver microsomes, 1 μM test compound, 37° C., NADPH
Description: Assay B: Microsomal Clearance:
The metabolic degradation of the test compound is assayed at 37° C. with pooled liver microsomes. The final incubation volume of 100 μl per time point contains TRIS buffer pH 7.6 at RT (0.1 M), magnesium chloride (5 mM), microsomal protein (1 mg/ml) and the test compound at a final concentration of 1 μM.
Following a short preincubation period at 37° C., the reactions are initiated by addition of beta-nicotinamide adenine dinucleotide phosphate, reduced form (NADPH, 1 mM) and terminated by transferring an aliquot into solvent after different time points (0, 5, 15, 30, 60 min). Additionally, the NADPH-independent degradation is monitored in incubations without NADPH, terminated at the last time point. The [%] remaining test compound after NADPH independent incubation is reflected by the parameter c(control) (metabolic stability). The quenched incubations are pelleted by centrifugation (10000 g, 5 min).
An aliquot of the supernatant is assayed by LC-MS/MS for the amount of parent compound. The half-life (t½ INVITRO) is determined by the slope of the semilogarithmic plot of the concentration-time profile.
The intrinsic clearance (CL_[…]) is calculated by considering the amount of protein in the incubation:
CL_[…] [μl/min/mg protein]=(Ln 2/(half-life [min]*protein content [mg/ml]))*1000
CL_[…]_INVIVO [ml/min/kg]=(CL_[…] [μL/min/mg protein]×MPPGL [mg protein/g liver]×liver factor [g/kg bodyweight])/1000

[2] = Assay C: Hepatocyte clearance; format: in vitro ADME, human; details: cryopreserved hepatocyte suspension, incubated six hours
Description: Assay C: Hepatocyte Clearance
The metabolic degradation of the test compound is assayed in a hepatocyte suspension. Hepatocytes (cryopreserved) are incubated in. Dulbecco's modified eagle medium (supplemented with 3.5 μg glucagon/500 mL, 2.5 mg insulin/500 mL and 3.75 mg/500 mL hydrocortison) containing 5% or 50% species serum.
Following a 30 min preincubation in an incubator (37° C., 10% CO2) 5 μl of test compound solution (80 μM; from 2 mM in DMSO stock solution diluted 1:25 with medium) are added into 395 μl hepatocyte suspension (cell density in the range 0.25-5 Mio cells/mL depending on the species, typically 1 Mio cells/mL; final concentration of test compound final DMSO concentration 0.05%).
The cells are incubated for six hours (incubator, orbital shaker) and samples (25 μl) are taken at 0, 0.5, 1, 2, 4 and 6 hours. Samples are transferred into acetonitrile and pelleted by centrifugation (5 min). The supernatant is transferred to a new 96-deepwell plate, evaporated under nitrogen and resuspended.
Decline of Parent Compound is Analyzed by HPLC-MS/MS
CLint is calculated as follows CL_[…]=Dose/AUC=(C0/CD)/(AUD+clast/k)×1000/60. C0: initial concentration in the incubation [μM], CD: cell density of vital cells [10e6cells/mL], AUD: area under the data [μM×h], clast: concentration of last data point [μM], k: slope of the regression line for parent decline [h−1].
The calculated in vitro hepatic intrinsic clearance can be scaled up to the intrinsic in vivo hepatic Clearance and used to predict hepatic in vivo blood clearance (CL) by the use of a liver model (well stirred model).
CL_[…]_INVIVO [ml/min/kg]=(CL_[…] [μL/min/10e6cells]×hepatocellularity[10e6cells/g liver]×liver factor [g/kg bodyweight])/1000
CL [ml/min/kg]=CL_[…]_INVIVO [ml/min/kg]×hepatic blood flow [ml/min/kg]/(CL_[…]_INVIVO [ml/min/kg]+hepatic blood flow [ml/min/kg])

[3] = Assay D: Metabolism in human hepatocytes in vitro; format: in vitro ADME; details: primary human hepatocytes, 10 μM test compound, up to six hours
Description: Assay D: Metabolism in Human Hepatocytes In Vitro
The metabolic pathway of a test compound is investigated using primary human hepatocytes in suspension.
Following a 30 min preincubation in a cell culture incubator (37° C., 10% CO2), test compound solution is spiked into the hepatocyte suspension to obtain a final cell density of 1.0*10^6 to 4.0*10^6 cells/ml (depending on the metabolic turnover rate of the compound observed with primary human hepatocytes), a final test compound concentration of 10 μM, and a final DMSO concentration of 0.05%.
The cells are incubated for six hours in a cell culture incubator on a horizontal shaker, and samples are removed from the incubation after 0, 0.5, 1, 2, 4 or 6 hours, depending on the metabolic turnover rate. Samples are quenched with acetonitrile and pelleted by centrifugation. The supernatant is transferred to a 96-deepwell plate, evaporated under nitrogen and resuspended prior to bioanalysis by liquid chromatography-high resolution mass spectrometry for identification of putative metabolites.

Sequence of human TRPA1 ion channel (O75762 whole entry): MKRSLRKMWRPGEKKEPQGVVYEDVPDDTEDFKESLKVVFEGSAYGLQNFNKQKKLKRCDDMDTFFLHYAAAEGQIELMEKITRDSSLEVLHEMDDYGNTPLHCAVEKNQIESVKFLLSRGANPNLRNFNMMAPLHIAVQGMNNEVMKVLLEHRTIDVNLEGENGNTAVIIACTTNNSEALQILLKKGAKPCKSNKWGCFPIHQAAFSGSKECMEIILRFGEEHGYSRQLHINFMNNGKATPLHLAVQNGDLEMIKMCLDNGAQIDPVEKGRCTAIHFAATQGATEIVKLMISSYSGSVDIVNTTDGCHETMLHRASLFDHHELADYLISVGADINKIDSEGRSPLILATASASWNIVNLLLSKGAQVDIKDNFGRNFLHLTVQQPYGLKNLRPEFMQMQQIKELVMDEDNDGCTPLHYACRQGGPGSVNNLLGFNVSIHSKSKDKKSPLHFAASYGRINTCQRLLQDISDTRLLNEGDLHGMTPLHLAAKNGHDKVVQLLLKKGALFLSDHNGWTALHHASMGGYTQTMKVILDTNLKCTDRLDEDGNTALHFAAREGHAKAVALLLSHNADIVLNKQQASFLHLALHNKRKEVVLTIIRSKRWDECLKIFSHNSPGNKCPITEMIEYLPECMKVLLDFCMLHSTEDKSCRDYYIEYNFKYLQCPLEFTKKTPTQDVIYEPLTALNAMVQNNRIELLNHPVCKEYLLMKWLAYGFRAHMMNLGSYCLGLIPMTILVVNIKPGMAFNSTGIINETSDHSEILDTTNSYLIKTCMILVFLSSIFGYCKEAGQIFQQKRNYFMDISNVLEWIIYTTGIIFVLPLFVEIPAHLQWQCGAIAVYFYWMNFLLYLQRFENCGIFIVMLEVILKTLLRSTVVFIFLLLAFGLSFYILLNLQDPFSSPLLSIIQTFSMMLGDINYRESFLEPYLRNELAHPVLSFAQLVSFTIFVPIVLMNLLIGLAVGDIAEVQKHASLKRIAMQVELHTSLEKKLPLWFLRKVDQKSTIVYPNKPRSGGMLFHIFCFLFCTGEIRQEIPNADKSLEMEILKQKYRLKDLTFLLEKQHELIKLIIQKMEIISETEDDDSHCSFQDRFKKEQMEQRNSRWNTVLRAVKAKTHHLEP

Row | Compound | pIC50 (human TRPA1 ion channel) | human LM [% Qh] [1] [% Qh] | human Hepatocytes [% Qh] [2] [% Qh] | Major metabolite observed: mechanism (Metabolite M1) [3]
1 | Cn1nnc2ncn(Cc3nnn(C[C@H](O)c4ccc(Cl)cc4)n3)c(=O)c21 [Example 1] | 7.46 | <23 | <4 | 
2 | Cn1cnc2nc(N)n(Cc3nnn(C[C@H](O)c4ccc(Cl)cc4)n3)c(=O)c21 [Example 2] | 6.54 |  |  | 
3 | Cc1ccn2ncn(Cc3nnn(C[C@H](O)c4ccc(Cl)cc4)n3)c(=O)c12 [Example 3] | 7.12 | >89 |  | 
4 | O=c1c2scnc2ncn1Cc1nnn(C[C@H](O)c2ccc(Cl)cc2)n1 [Example 4] | 6.71 | <23 |  | 
5 | Cc1nn(C)c2ncn(Cc3nnn(C[C@H](O)c4ccc(Cl)cc4)n3)c(=O)c12 [Example 5] | 7.57 | <23 | 31 | N-Demethylation
6 | Cn1cnc2cnn(Cc3nnn(C[C@H](O)c4ccc(Cl)cc4)n3)c(=O)c21 [Example 7] | 6.56 | <23 |  | 
7 | Cc1ncn2ncn(Cc3nnn(C[C@H](O)c4ccc(Cl)cc4)n3)c(=O)c12 [Example 8] | 7.57 | <23 | 22 | 
8 | Cn1cnc2ncn(Cc3nnn(C[C@H](O)c4ccc(Cl)cc4)n3)c(=O)c21 [Example 9, 1-({2-[(2R)-2-(4-chlorophenyl)-2-hydroxyethyl]-2H-1,2,3,4-tetrazol-5-yl}methyl)-7-methyl-6,7-dihydro-1H-purin-6-one] | 7.14 | <23 | <4 | 
